# Assay results from US12629370B2, “Treatment of prostate cancer” (Sumitomo Pharma Co., Ltd., priority 2016, dated 2026).
# Where a SMILES comes first, the peptide text is derived from it. [ ]: non-standard residue; d: D form. The star is where a group is joined. dPhe(4-NHCONH2) = NC(=O)Nc1ccc(C[C@@H](N)C(=O)O)cc1; Dihydroorotyl(S) = O=C1C[C@@H](C(=O)*)NC(=O)N1; dPhe(4-Cl) = N[C@H](Cc1ccc(Cl)cc1)C(=O)O; Phe(4-NH2) = Nc1ccc(C[C@H](N)C(=O)O)cc1; d2Nal = N[C@H](Cc1ccc2ccccc2c1)C(=O)O; Lys(iPr) = CC(C)NCCCC[C@H](N)C(=O)O; d3Pal = N[C@H](Cc1cccnc1)C(=O)O
# Tests used:
# Assay type in all cases: in vivo, human
# serum testosterone = assay: Example 9: serum testosterone, castration and recovery, neoadjuvant/adjuvant ADT to EBRT, versus degarelix; conditions: for Percent recovery (95% CI) to baseline testosterone or >280 ng/dL: 12 weeks from last dose
# Procedure: (§1) Eligible male patients were aged ≥18 years with a histologically confirmed diagnosis of localized, intermediate-risk prostate cancer, for whom 6-month neoadjuvant and adjuvant androgen deprivation therapy (ADT) to external beam radiation therapy (EBRT) was indicated. The criteria for establishing intermediate-risk prostate cancer included the presence of one of the following, without any high-risk feature: T2b-T2c disease, Gleason score 7, or prostate-specific antigen (PSA) 10-20 ng/mL. […] Based on investigator discretion and clinical assessment of the patient's overall medical and disease status, participation was allowed for older patients with high-risk disease (e.g., based on Gleason score or tumor status) who were deemed likely to benefit from 6 months of neoadjuvant/adjuvant ADT.
# Both treatment arms received treatment for 24 weeks. […] EBRT began no later than day 1, week 17. […]
# (§2) Samples for testosterone, luteinizing hormone (LH), FSH, and PSA concentrations were taken at screening, on day 1 of the first week (additionally days 2 and 4 for testosterone and LH), and on day 1 of weeks 2, 3, 5, 9, 13, 17, 21, 25, 29, 33, and 37 thereafter.
# PSA = assay: Example 9: PSA
# Procedure: (§3) Eligible male patients were aged ≥18 years with a histologically confirmed diagnosis of localized, intermediate-risk prostate cancer, for whom 6-month neoadjuvant and adjuvant androgen deprivation therapy (ADT) to external beam radiation therapy (EBRT) was indicated. The criteria for establishing intermediate-risk prostate cancer included the presence of one of the following, without any high-risk feature: T2b-T2c disease, Gleason score 7, or prostate-specific antigen (PSA) 10-20 ng/mL. Additional inclusion criteria included: EBRT scheduled to begin ≥12 weeks after baseline visit; screening serum testosterone >150 ng/dL (5.2 nmol/L); screening PSA concentration >2 ng/ml; body mass index ≥18.0 at screening or baseline (i.e., the subject's BMI prior to treatment commencing); Eastern Cooperative Oncology Group performance status of 0 or 1 at screening. Based on investigator discretion and clinical assessment of the patient's overall medical and disease status, participation was allowed for older patients with high-risk disease (e.g., based on Gleason score or tumor status) who were deemed likely to benefit from 6 months of neoadjuvant/adjuvant ADT. Most patients had intermediate-risk disease. However, a few patients, based on Gleason score or tumor, node, and metastasis staging system, were technically of higher than intermediate risk.
# (§4) Both treatment arms received treatment for 24 weeks. Patients remained on treatment for at least 12 weeks before the start of external beam radiation treatment (EBRT), which was initiated for most patients between Week 13, Day 1 and Week 15, Day 1. EBRT began no later than day 1, week 17.
# (§5) Patients were evaluated every 4 weeks during the treatment period (including day 1, week 25), at end of treatment (defined as week 29), during follow-up (week 33), and at end of study (EOS).
# as §2, with “thereafter. […] Suppression of FSH was less profound than that of LH, but consistent with the literature, and was greater than that observed with GnRH agonists.” for “thereafter.”
# LH = assay: Example 9: LH
# Procedure: as §1
# Both treatment arms received treatment for 24 weeks. […] EBRT began no later than day 1, week 17.
# as §5, §2
# FSH = assay: Example 9: FSH
# Procedure: as §3, §4, §5
# as §2, with “thereafter. […] Suppression of FSH was less profound than that of LH, but consistent with the literature, and was greater than that observed with GnRH agonists.” for “thereafter.”
# [1] = tested on: patients with intermediate-risk prostate cancer; assay: Example 9: quality of life (EORTC QLQ-C30, QLQ-PR25, AMS)
# Procedure: as §3, §4
# Quality of Life (QoL) was assessed via the core 30-item European Organisation for Research and Treatment of Cancer quality of life questionnaire (EORTC QLQ-C30), the 25-item prostate cancer module EORTC questionnaire (EORTC QLQ-PR25), and the aging male survey (AMS). QoL assessments were completed at screening, on day 1 of weeks 1, 5, 13, and 25, and at weeks 29, 33, and 37.
# [2] = subjects with at least 24 weeks of treatment
# [3] = from baseline (day 1) to week 25
compound,measurement,setting,value
"CC(=O)N[C@H](Cc1ccc2ccccc2c1)C(=O)N[C@H](Cc1ccc(Cl)cc1)C(=O)N[C@H](Cc1cccnc1)C(=O)N[C@@H](CO)C(=O)N[C@@H](Cc1ccc(NC(=O)[C@@H]2CC(=O)NC(=O)N2)cc1)C(=O)N[C@H](Cc1ccc(NC(N)=O)cc1)C(=O)N[C@@H](CC(C)C)C(=O)N[C@@H](CCCCNC(C)C)C(=O)N1CCC[C@H]1C(=O)N[C@H](C)C(N)=O [Degarelix, degarelix, reference compound] (Ac-[d2Nal][dPhe(4-Cl)][d3Pal]S[Phe(4-NH2)](Dihydroorotyl(S))[dPhe(4-NHCONH2)]L[Lys(iPr)]P[dA]-NH2)","Kaplan-Meier estimate (95% CI) of testosterone recovery, probability of event",serum testosterone; 4 weeks from last dose,0.00 (0.00.0.00)
same,"Kaplan-Meier estimate (95% CI) of testosterone recovery, probability of event",serum testosterone; 8 weeks from last dose,0.00 (0.00.0.00)
same,patients whose serum testosterone met the definition of recovery,serum testosterone; 12-week follow-up,6 of 38
same,Percent recovery (95% CI) to baseline testosterone or >280 ng/dL,serum testosterone,5.3 (0.6.17.7) %
same,Percent recovery (95% CI) to baseline testosterone or >280 ng/dL,serum testosterone; listed as degarelix,5.3%
same,Median testosterone,serum testosterone; Baseline,403.8 ng/dL
same,Testosterone Median,serum testosterone; Baseline,14.020 nmol/L
same,Testosterone Mean (Std Dev),"serum testosterone; Baseline, Compound 1 120 mg QD or degarelix 80 mg Q4W",14.567 (5.5680) nmol/L
same,Testosterone Mean (Std Dev),serum testosterone; EOS,3.038 (4.0224) nmol/L
same,Testosterone Median,serum testosterone; EOS,1.040 nmol/L
same,Testosterone Mean (Std Dev),serum testosterone; EOT,0.576 (1.2218) nmol/L
same,Testosterone Median,serum testosterone; EOT,0.335 nmol/L
same,Testosterone Mean (Std Dev),serum testosterone; Follow-Up,1.206 (1.9330) nmol/L
same,Testosterone Median,serum testosterone; Follow-Up,0.560 nmol/L
same,Median testosterone,serum testosterone; Week 24,8.9 ng/dL
same,Testosterone Mean (Std Dev),"serum testosterone; Week 25, Day 1",0.582 (1.5107) nmol/L
same,Testosterone Median,"serum testosterone; Week 25, Day 1",0.310 nmol/L
same,Median testosterone,serum testosterone; Week 28/EOT visit,9.6 ng/dL
same,Median testosterone,serum testosterone; Week 32/follow-up,16.1 ng/dL
same,Median testosterone,serum testosterone; Week 36/EOS,30.0 ng/dL
same,patients recovered to baseline testosterone or greater than 280 ng/dL,serum testosterone; end of 12-week follow-up,6%
same,median serum testosterone,serum testosterone; end of study visit,< 50 ng/dL
same,Median time to medical castration (≤50 ng/dL),serum testosterone; in vivo,3 days
same,Median time to profound castration (≤20 ng/dL),serum testosterone; in vivo,12 days
same,medical castration rate (less than 50 ng/dL),"serum testosterone; over 24 weeks, overall",89%
same,profound castration rate (less than 20 ng/dL),"serum testosterone; over 24 weeks, overall",68%
same,Testosterone recovery (baseline or >280 ng/dL): number with events,serum testosterone; overall safety population,6 (16) n (%)
same,Testosterone recovery: number censored,serum testosterone; overall safety population,32 (84) n (%)
same,"Time to testosterone recovery, 25th percentile (95% CI)",serum testosterone; overall safety population,100 (87.106) days
same,"Time to testosterone recovery, 75th percentile (95% CI)",serum testosterone; overall safety population,106 (100.106) days
same,"Time to testosterone recovery, Median (95% CI)",serum testosterone; overall safety population,100 (100.106) days
same,"Time to testosterone recovery, Median (95% CI)","serum testosterone; overall safety population, listed as degarelix","100 (100, 106) days"
same,medical castration rate (less than 50 ng/dL),serum testosterone; [2],86%
same,profound castration rate (less than 20 ng/dL),serum testosterone; [2],71%
same,Median PSA,PSA; Baseline,7.3 µg/L
same,Median PSA,PSA; Week 24,0.1 µg/L
same,Median PSA,PSA; Week 28/EOT visit,0.07 µg/L
same,Median PSA,PSA; Week 32/follow-up,0.07 µg/L
same,Median PSA,PSA; Week 36/EOS,0.07 µg/L
same,patients achieving PSA values less than 0.2 ng/ml,PSA; by the end of 12 weeks,1 of 20
same,Median LH,LH; Baseline,4.8 mlU/mL
same,LH level,LH; Day 4,0.499 mIU/mL
same,Median LH,LH; Week 24,0.1 mlU/mL
same,mean LH level,"LH; Week 25, Day 1",0.342 IU/L
same,Median LH,LH; Week 28/EOT visit,0.2 mlU/mL
same,Median LH,LH; Week 32/follow-up,0.5 mlU/mL
same,Median LH,LH; Week 36/EOS,1.4 mlU/mL
same,FSH level before administration,FSH; Baseline,11.716 IU/L
same,FSH level,"FSH; Week 2, Day 1",2.519 IU/L
same,mean FSH level,"FSH; Week 25, Day 1",1.471 IU/L
same,"Global health/QoL, Mean (SD) change",[1]; [3],−7.5 (13.7)
same,"Hormonal treatment-related symptoms, Mean (SD) change",[1]; [3],12.9 (10.4)
same,"Sexual activity, Mean (SD) change",[1]; [3],−11.8 (36.3)
same,"Global health/QoL, Mean (SD) change",[1]; from baseline to week 36 (EOS),−6.8 (16.0)
same,"Hormonal treatment-related symptoms, Mean (SD) change",[1]; from baseline to week 36 (EOS),11.7 (10.2)
same,"Sexual activity, Mean (SD) change",[1]; from baseline to week 36 (EOS),−5.3 (34.7)
same,"Global health/QoL, Mean (SD) change",[1]; from week 25 to week 36,0.7 (15.5)
same,"Hormonal treatment-related symptoms, Mean (SD) change",[1]; from week 25 to week 36,−1.2 (9.1)
same,"Sexual activity, Mean (SD) change",[1]; from week 25 to week 36,6.6 (22.8)
